Experimental data published in patent publication US20120309728A1, “NEW STEROID INHIBITORS OF PGP FOR USE FOR INHIBITING MULTIDRUG RESISTANCE” (priority 2009, published 2012).

Test system: R7 cells
Test: Intracellular accumulation of daunorubicin measured by flow cytometry
Assay type: cell-based, human
Details: not given
Method: The accumulation of daunorubicin in the presence of steroid modulators according to the invention, i.e. compounds having formula (I), was measured by flow cytometry using a reported procedure (G. Comte et al, J. Med. Chem., 44: 763-768, 2001). K562 or R7 cells ([…]) were incubated for 1 h at 37° C. with 1 mL RPMI 1640 medium containing daunorubicin at 10 μM, in the presence or absence of compounds of the invention (10 μM). The cells were then washed twice with ice-cold PBS and kept on ice until analysis by flow cytometry on a FACS-II (Becton-Dickinson Corp., Mountain View, Calif.). Assays were performed in duplicate, in at least three separate experiments.

SMILES | accumulation of daunorubicin compared in words with cyclosporine A or progesterone
CC(=O)[C@@]1(OC2CCCCO2)CCC2C3CC[C@@H]4CC(=O)CC[C@]4(C)C3[C@H](OC3CCCCO3)C[C@@]21C (stereo partly drawn) [Compound 52, 11α,17α-Bis-O-[2′(R),2′(R)]tetrahydropyranyloxy(5β)pregnane-3,20-dione] | equivalent to that observed with cyclosporine A
CC(=O)[C@@]1(O[C@H]2CCCCO2)CC[C@H]2[C@@H]3CC[C@@H]4CC(=O)CC[C@]4(C)[C@H]3[C@H](O[C@H]3CCCCO3)C[C@@]21C [Compound 53, 11α,17α-Bis-O-[2′(S),2′(S)]Tetrahydropyranyloxy(5β)pregnane-3,20-dione] | equivalent to that observed with cyclosporine A

Same assay, conditions: daunorubicin 10 μM, compound 10 μM, 1 h at 37° C.

SMILES | Daunorubicin accumulation
CC(=O)C1CCC2C3C(CC[C@]12C)[C@@]1(C)CCC(=O)C=C1C[C@@H]3OC1CCCCO1 (stereo partly drawn) [Compound 3, 7beta-O-[2′(R+S)]Tetrahydropyranyloxypregn-4-ene-3,20-dione] | 108.78 ± 4.27 % of the accumulation measured in the presence of cyclosporine A
CC(=O)C1CCC2C3CC[C@@H]4CC(=O)CC[C@]4(C)C3[C@H](OC3CCCCO3)C[C@]12C (stereo partly drawn) [Compound 7, 11α-O-[2′(R)]Tetrahydropyranyloxy(5β)pregnane-3,20-dione] | 103.0 ± 1.86 % of the accumulation measured in the presence of cyclosporine A
CC(=O)[C@@]1(OC2CCCCO2)CCC2C3CCC4=CC(=O)CC[C@]4(C)C3CC[C@@]21C (stereo partly drawn) [Compound 11, 17alpha-O-[2′(R)]Tetrahydropyranyloxypregn-4-ene-3,20-dione] | 108.08 ± 6.28 % of the accumulation measured in the presence of cyclosporine A
CC(=O)[C@H]1CC[C@H]2[C@H]3[C@H]([C@H](OC(=O)c4ccccc4)C[C@]12C)[C@@]1(C)CCC(=O)C[C@H]1C[C@H]3OC(=O)c1ccccc1 [Compound 30, 7alpha,11alpha-Di benzoyloxy(5beta)pregnane-3,20-dione] | 75.39 ± 0.39 % of the accumulation measured in the presence of cyclosporine A
CC(=O)C1CCC2C3C([C@H](OC4CCCCO4)C[C@]12C)[C@@]1(C)CCC(=O)C[C@H]1C[C@H]3OC(=O)c1ccccc1 (stereo partly drawn) [Compound 32, 7α-Benzoyloxy-11α-O-[2′(S)]tetrahydropyranyloxy (5β)pregnane-3,20-dione] | 103.88 ± 4.53 % of the accumulation measured in the presence of cyclosporine A
CC(=O)C1CCC2C3C([C@H](OC4CCCCO4)C[C@]12C)[C@@]1(C)CCC(=O)C[C@H]1C[C@@H]3OC(=O)c1ccccc1 (stereo partly drawn) [Compound 39, 7β-Benzoyloxy-11α-O-[2′(S)]tetrahydropyranyloxy(5β)pregnane-3,20-dione] | 109.0 ± 1.0 % of the accumulation measured in the presence of cyclosporine A
CC(=O)C1CCC2C3C([C@H](OC4CCCCO4)C[C@]12C)[C@@]1(C)CCC(=O)C[C@H]1C[C@@H]3OC(=O)c1ccccc1 (stereo partly drawn) [Compound 40, 7β-Benzoyloxy-11α-O-[2′(R)]tetrahydropyranyloxy(5β) pregnane-3,20-dione] | 89.5 ± 0.5 % of the accumulation measured in the presence of cyclosporine A
CC(=O)[C@H]1CC[C@H]2[C@H]3[C@H]([C@H](OC(=O)c4ccccc4)C[C@]12C)[C@@]1(C)CCC(=O)C[C@H]1C[C@@H]3OC(=O)c1ccccc1 [Compound 41, 7β,11α-Dibenzoyloxy(5β)pregnane-3,20-dione] | 73.3 ± 0.5 % of the accumulation measured in the presence of cyclosporine A
CC(=O)[C@@]1(OC2CCCCO2)CCC2C3CC[C@@H]4CC(=O)CC[C@]4(C)C3[C@H](OC3CCCCO3)C[C@@]21C (stereo partly drawn) [Compound 52, 11α,17α-Bis-O-[2′(R),2′(R)]tetrahydropyranyloxy(5β)pregnane-3,20-dione] | 102.01 ± 2.0 % of the accumulation measured in the presence of cyclosporine A
CC(=O)[C@@]1(O[C@H]2CCCCO2)CC[C@H]2[C@@H]3CC[C@@H]4CC(=O)CC[C@]4(C)[C@H]3[C@H](O[C@H]3CCCCO3)C[C@@]21C [Compound 53, 11α,17α-Bis-O-[2′(S),2′(S)]Tetrahydropyranyloxy(5β)pregnane-3,20-dione] | 107.0 ± 5.0 % of the accumulation measured in the presence of cyclosporine A
COC(=O)CC[C@@H](C)[C@H]1CC[C@H]2[C@@H]3[C@H](OC(=O)c4ccccc4)CC4CC(=O)CC[C@]4(C)[C@H]3C[C@H](OC(=O)c3ccccc3)[C@]12C (stereo partly drawn) [Compound 57, Methyl 3-oxo-7alpha,12alpha-dibenzoyloxycholanate] | 74 ± 1.0 % of the accumulation measured in the presence of cyclosporine A
